# Test system: FOXC2-expressing HMLER cells
# Test: Cell Titer Glo viability of FOXC2-HMLER cells (high throughput screen and 10-point response)
# Format: cell-based
# Settings: Homo sapiens; scored relative to parent compound 2; 72 hours; read-out: Activity Score, inhibition of FOXC2-expressing HMLER cells by Formula II compounds
# How it was run: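 FOXC2-HMLER cells (HMLER run in parallel) seeded at 1,000 cells/well in MEGM, attached 1 h, then given compound in DMSO (2 μM in the screen). After 72 h, viability was read by Cell Titer Glo luminescence.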
row,SMILES,IC50 [µM]
1,COc1cccc(NC(=O)Cn2c(=O)c(CNc3ccc(OC)c(OC)c3)cc3ccc(C)cc32)c1 [Compound 2EU],> 20
2,COc1ccc(NCc2cc3ccc(OC)cc3n(CC(=O)Nc3cccc(Cl)c3)c2=O)cc1 [Compound 2EV],> 20
3,COc1ccc2cc(CNc3ccccc3)c(=O)n(CC(=O)Nc3cc(F)ccc3F)c2c1 [Compound 2EW],> 20
4,COc1ccc2cc(CNc3ccccc3)c(=O)n(CC(=O)Nc3cccc(C(C)=O)c3)c2c1 [Compound 2EX],> 20
5,Cc1ccc(NCc2cc3cc4c(cc3n(CC(=O)Nc3ccc(C)cc3C)c2=O)OCCO4)cc1 [Compound 2EY],> 20
6,COc1ccc2cc(CNc3ccccc3)c(=O)n(CC(=O)Nc3cccc(Cl)c3C)c2c1 [Compound 2EZ],> 20
7,CCOc1ccc(NC(=O)Cn2c(=O)c(CNc3ccc(C)cc3)cc3ccc(OC)cc32)cc1 [Compound 2E],1 to 20
8,COc1ccc2cc(CNc3ccccc3)c(=O)n(CC(=O)Nc3cccc(SC)c3)c2c1 [Compound 2FA],> 20
9,CCc1ccc(NC(=O)Cn2c(=O)c(CNc3ccc(C)cc3)cc3cc(OC)c(OC)cc32)cc1 [Compound 2FB],> 20
10,COc1ccc2cc(CNc3ccc(C)cc3)c(=O)n(CC(=O)Nc3cc(Cl)ccc3C)c2c1 [Compound 2FC],> 20
11,COc1ccc(NCc2cc3ccc(OC)cc3n(CC(=O)Nc3cc(Cl)ccc3C)c2=O)cc1 [Compound 2FD],> 20
12,COc1cc2cc(CNc3ccccc3)c(=O)n(CC(=O)Nc3ccc(C)c(C)c3)c2cc1OC [Compound 2FE],> 20
13,COc1cc2cc(CNc3ccc(C)cc3)c(=O)n(CC(=O)Nc3ccccc3C)c2cc1OC [Compound 2FF],> 20
14,O=C(Cn1c(=O)c(CNc2ccccc2)cc2cc3c(cc21)OCCO3)Nc1ccc2c(c1)OCCO2 [Compound 2FG],> 20
15,COc1cc2cc(CNc3ccc(C)cc3)c(=O)n(CC(=O)Nc3ccc(Cl)cc3)c2cc1OC [Compound 2FH],> 20
16,COc1ccc2cc(CNc3ccc(C)cc3)c(=O)n(CC(=O)Nc3ccc(C)c(F)c3)c2c1 [Compound 2FI],> 20
17,CCc1ccccc1NC(=O)Cn1c(=O)c(CNc2ccc(C)cc2)cc2ccc(OC)cc21 [Compound 2FJ],> 20
18,COc1ccc2cc(CNc3ccc(OC)c(OC)c3)c(=O)n(CC(=O)Nc3cccc(C)c3)c2c1 [Compound 2FK],> 20
19,CCc1cccc(NC(=O)Cn2c(=O)c(CNc3ccc(C)cc3)cc3ccc(OC)cc32)c1 [Compound 2FL],> 20
20,COc1cccc(NC(=O)Cn2c(=O)c(CNc3ccccc3)cc3ccc(C)cc32)c1 [Compound 2FM],> 20
21,COc1ccc2cc(CNc3ccc(C)cc3)c(=O)n(CC(N)=O)c2c1 [Compound 2FN],> 20
22,CCc1ccc(NCc2cc3ccc(OC)cc3n(CC(=O)Nc3cccc(F)c3)c2=O)cc1 [Compound 2FO],> 20
23,COc1cc2cc(CNc3ccccc3)c(=O)n(CC(=O)Nc3ccc(Cl)cc3)c2cc1OC [Compound 2FP],> 20
24,Cc1ccc(C)c(NC(=O)Cn2c(=O)c(CNc3ccccc3)cc3cc4c(cc32)OCCO4)c1 [Compound 2FQ],> 20
25,CCc1ccc(NCc2cc3ccc(OC)cc3n(CC(=O)Nc3ccc4c(c3)OCCO4)c2=O)cc1 [Compound 2FR],> 20
26,COc1cc2cc(CNc3ccccc3)c(=O)n(CC(=O)Nc3ccccc3Cl)c2cc1OC [Compound 2FS],> 20

row,SMILES,IC50 [µM]
1,CCc1ccc(NCc2cc3ccc(OC)cc3n(CC(=O)Nc3cccc(OC)c3)c2=O)cc1 [Compound 2FT],> 20
2,COc1cc2cc(CNc3ccc(C)cc3)c(=O)n(CC(=O)Nc3ccccc3)c2cc1OC [Compound 2FU],> 20
3,COc1ccc2cc(CNc3ccc(C)cc3)c(=O)n(CC(=O)Nc3ccccc3)c2c1 [Compound 2FV],> 20
4,Cc1ccc(NCc2cc3cc4c(cc3n(CC(=O)Nc3ccc(C)cc3)c2=O)OCCO4)cc1 [Compound 2FW],> 20
5,COc1ccc(NCc2cc3ccc(OC)cc3n(CC(=O)Nc3ccc(C)c(C)c3)c2=O)cc1 [Compound 2FX],> 20
6,COc1cc2cc(CNc3ccc(C)cc3)c(=O)n(CC(=O)Nc3ccc(C)cc3)c2cc1OC [Compound 2FY],> 20
7,COc1ccc(CNC(=O)Cn2c(=O)c(CNc3ccc(C)cc3)cc3ccc(OC)cc32)cc1 [Compound 2FZ],> 20
8,COc1ccc(NCc2cc3ccc(C)cc3n(CC(=O)Nc3ccc(C)cc3C)c2=O)cc1OC [Compound 2F],1 to 20
9,CCc1ccc(NCc2cc3cc4c(cc3n(CC(=O)Nc3cccc(OC)c3)c2=O)OCCO4)cc1 [Compound 2GA],> 20
10,CCc1ccc(NCc2cc3ccc(OC)cc3n(CC(=O)Nc3ccc(Cl)cc3)c2=O)cc1 [Compound 2GB],> 20
11,COc1cccc(NC(=O)Cn2c(=O)c(CNc3ccc(C)cc3)cc3cc4c(cc32)OCCO4)c1 [Compound 2GC],> 20
12,COc1ccc(NCc2cc3cc4c(cc3n(CC(=O)Nc3ccc(C)c(C)c3)c2=O)OCCO4)cc1 [Compound 2GD],> 20
13,COc1ccc(NC(=O)Cn2c(=O)c(CNc3ccccc3)cc3ccc(C)cc32)cc1OC [Compound 2GE],> 20
14,COc1ccc2cc(CNc3ccc(C)cc3)c(=O)n(CC(=O)Nc3cccc(C(C)=O)c3)c2c1 [Compound 2GF],> 20
15,COc1cc2cc(CNc3ccccc3)c(=O)n(CC(=O)Nc3cc(C)cc(C)c3)c2cc1OC [Compound 2GG],> 20
16,COc1ccc2cc(CNc3ccc(C)cc3)c(=O)n(CC(=O)Nc3cccc(SC)c3)c2c1 [Compound 2GH],> 20
17,CCOc1ccc(NC(=O)Cn2c(=O)c(CNc3ccccc3)cc3cc(OC)c(OC)cc32)cc1 [Compound 2GI],> 20
18,Cc1ccc(NC(=O)Cn2c(=O)c(CNc3ccccc3)cc3cc4c(cc32)OCCO4)cc1 [Compound 2GJ],> 20
19,COc1ccc(NCc2cc3ccc(OC)cc3n(CC(=O)Nc3ccccc3OC)c2=O)cc1 [Compound 2GK],> 20
20,CCc1ccc(NCc2cc3ccc(OC)cc3n(CC(=O)NCCc3ccccc3)c2=O)cc1 [Compound 2GL],> 20
21,CCOC(=O)c1ccc(NC(=O)Cn2c(=O)c(CNc3ccc(C)cc3)cc3ccc(OC)cc32)cc1 [Compound 2GM],> 20
22,Cc1ccccc1NC(=O)Cn1c(=O)c(CNc2ccccc2)cc2cc3c(cc21)OCCO3 [Compound 2GN],> 20
23,COc1ccc(NC(=O)Cn2c(=O)c(CNc3ccccc3)cc3cc4c(cc32)OCCO4)cc1 [Compound 2GO],> 20
24,COc1ccc2cc(CNc3ccc(C)cc3)c(=O)n(CC(=O)NCc3ccc(C)cc3)c2c1 [Compound 2GP],> 20
25,COc1ccc2cc(CNc3ccccc3)c(=O)n(CC(=O)NCc3ccc(C)cc3)c2c1 [Compound 2GQ],> 20
26,COc1ccc(NCc2cc3ccc(OC)cc3n(CC(=O)Nc3ccc(C)cc3Cl)c2=O)cc1 [Compound 2GR],> 20

row,SMILES,IC50 [µM]
1,CCc1ccc(NCc2cc3ccc(OC)cc3n(CC(=O)Nc3cc(Cl)ccc3C)c2=O)cc1 [Compound 2GS],> 20
2,COc1ccc2cc(CNc3ccc(C)cc3)c(=O)n(CC(=O)NCc3ccccc3)c2c1 [Compound 2GT],> 20
3,Cc1cccc(C)c1NC(=O)Cn1c(=O)c(CNc2ccccc2)cc2cc3c(cc21)OCCO3 [Compound 2GU],> 20
4,COc1cc(NC(=O)Cn2c(=O)c(CNc3ccccc3)cc3ccc(OC)cc32)cc(OC)c1 [Compound 2GV],> 20
5,CCOc1ccc(NC(=O)Cn2c(=O)c(CNc3ccccc3)cc3cc4c(cc32)OCCO4)cc1 [Compound 2GW],> 20
6,COc1ccc2cc(CNc3ccc(C)cc3)c(=O)n(CC(=O)Nc3ccc(OC)c(Cl)c3)c2c1 [Compound 2GX],> 20
7,COc1ccc(NCc2cc3ccc(C)cc3n(CC(=O)Nc3ccc(C)cc3)c2=O)cc1OC [Compound 2GY],> 20
8,COc1ccc2cc(CNc3ccc(C)cc3)c(=O)n(CC(=O)Nc3ccccc3C)c2c1 [Compound 2GZ],> 20
9,COc1ccc2cc(CNc3ccc(C)cc3)c(=O)n(CC(=O)Nc3ccc(F)c(F)c3)c2c1 [Compound 2G],1 to 20
10,CCc1ccc(NCc2cc3ccc(OC)cc3n(CC(=O)Nc3ccccc3)c2=O)cc1 [Compound 2HA],> 20
11,COc1ccc2cc(CNc3ccccc3)c(=O)n(CC(N)=O)c2c1 [Compound 2HB],> 20
12,CCc1ccc(NCc2cc3ccc(OC)cc3n(CC(=O)Nc3ccccc3Cl)c2=O)cc1 [Compound 2HC],> 20
13,COc1ccc2cc(CNc3ccc(C)cc3)c(=O)n(CC(=O)Nc3ccccc3OC)c2c1 [Compound 2HD],> 20
14,COc1ccc(NCc2cc3ccc(OC)cc3n(CC(=O)Nc3cc(C)ccc3C)c2=O)cc1 [Compound 2HE],> 20
15,COc1ccc2cc(CNc3ccccc3)c(=O)n(CC(=O)Nc3ccc(OC)c(OC)c3)c2c1 [Compound 2HF],> 20
16,CCc1ccc(NCc2cc3ccc(OC)cc3n(CC(=O)Nc3cccc(C)c3)c2=O)cc1 [Compound 2HG],> 20
17,COc1ccc2cc(CNc3ccc(C)cc3)c(=O)n(CC(=O)NCCc3ccccc3)c2c1 [Compound 2HH],> 20
18,COc1ccc(NCc2cc3cc(OC)c(OC)cc3n(CC(=O)Nc3cccc(C)c3)c2=O)cc1 [Compound 2HI],> 20
19,COc1ccc2cc(CNc3ccc(C)cc3)c(=O)n(CC(=O)Nc3cccc(Cl)c3)c2c1 [Compound 2HJ],> 20
20,CCc1ccc(NCc2cc3ccc(OC)cc3n(CC(=O)Nc3ccc(F)cc3)c2=O)cc1 [Compound 2HK],> 20
21,COc1ccc2c(c1)cc(CNc1ccc(OC)c(OC)c1)c(=O)n2CC(=O)Nc1ccc(C)cc1 [Compound 2HL],> 20
22,COc1ccc(NC(=O)c2ccccc2NC(=O)CN2C(=O)c3ccccc3C2=O)cc1 [Compound 2HM],> 20
23,COc1ccc2cc(CNc3ccccc3)c(=O)n(CC(=O)Nc3cc(C)cc(C)c3)c2c1 [Compound 2HN],> 20
24,COc1ccc(NCc2cc3ccc(C)cc3n(CC(=O)Nc3ccc(C)c(C)c3)c2=O)cc1OC [Compound 2HO],> 20
